For data set [1], the target named is human P-glycoprotein (Homo sapiens (Human), UniProt P08183). The data set can be described thus: Pgp Mdr1 efflux ratio. It is filed as in vitro ADME. The following applies: for Pgp Mdr1 ER: efflux ratio, human P-glycoprotein.
Data set [2] deals with soluble human BACE1 catalytic domain (Homo sapiens (Human), UniProt P56817). Description: BACE1 HTRF FRET assay. The following applies: for Ki: Ki calculated from IC50 using the Cheng-Prusoff equation. It is filed as biochemical. An excerpt: Na^+-Acetate pH 5.0; 1% Brij-35; Glycerol; Dimethyl Sulfoxide (DMSO); Recombinant human soluble BACE1 catalytic domain (>95% pure); APP Swedish mutant peptide substrate (QSY7-APP^swe-Eu): QSY7-[…]-Europium-amide.
soluble human BACE1 catalytic domain, sequence (P56817 75-416): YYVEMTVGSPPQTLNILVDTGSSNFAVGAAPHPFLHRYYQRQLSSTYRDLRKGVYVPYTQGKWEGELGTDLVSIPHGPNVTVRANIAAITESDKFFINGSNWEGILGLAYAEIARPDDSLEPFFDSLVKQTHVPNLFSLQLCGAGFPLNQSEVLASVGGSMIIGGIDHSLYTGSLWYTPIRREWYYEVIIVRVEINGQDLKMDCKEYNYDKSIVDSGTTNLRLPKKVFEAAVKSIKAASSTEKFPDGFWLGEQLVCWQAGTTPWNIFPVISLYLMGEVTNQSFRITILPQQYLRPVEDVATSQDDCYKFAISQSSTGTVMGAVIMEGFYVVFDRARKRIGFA
A homogeneous time-resolved FRET assay can be used to determine IC50 values for inhibitors of the soluble human BACE1 catalytic domain. This assay monitors the increase of 620 nm fluorescence that resulted from BACE1 cleavage of an APPswedish APP^swe mutant peptide FRET substrate (QSY7-[…]-Europium-amide). This substrate contains an N-terminal QSY7 moiety that serves as a quencher of the C-terminal Europium fluorophore (620 nm Em). In the absence of enzyme activity, 620 nm fluorescence is low in the assay and increased linearly over 3 hours in the presence of uninhibited BACE1 enzyme Inhibition of BACE1 cleavage of the QSY7-APP^swe-Eu substrate by inhibitors is manifested as a suppression of 620 nm fluorescence.
Varying concentrations of inhibitors at 3× the final desired concentration in a volume of 10 ul are preincubated with purified human BACE1 catalytic domain (3 nM in 10 μl) for 30 minutes at 30° C. in reaction buffer containing 20 mM Na-Acetate pH 5.0, 10% glycerol, 0.1% Brij-35 and 7.5% DSMO. Reactions are initiated by addition of 10 μl of 600 nM QSY7-APP^swe-Eu substrate (200 nM final) to give a final reaction volume of […] in a 384 well Nunc HTRF plate. The reactions are incubated at 30° C. for 1.5 hours. The 620 nm fluorescence is then read on a Rubystar HTRF plate reader (BMG Labtechnologies) using a 50 millisecond delay followed by a 400 millisecond acquisition time window. Inhibitor IC50 values are derived from non-linear regression analysis of concentration response curves.

Data set [3] concerns the target human autoBACE-2 (Homo sapiens (Human), UniProt Q9Y5Z0). Description: BACE-2 assay (BACE-HTRF, time-resolved endpoint proteolysis). It is filed as biochemical. The following applies: Ki calculated from IC50 using the Cheng-Prusoff equation; read-out: BACE2 Ki. As to the method: Inhibitor IC50s at purified human autoBACE-2 are determined in a time-resolved endpoint proteolysis assay that measures hydrolysis of the QSY7-[…]-Eu-amide FRET peptide substrate (BACE-HTRF assay). […] DMSO is present at 5% final concentration in the assay. Following laser excitation of sample wells at 320 nm, the fluorescence signal at 620 nm is collected for 400 ms following a 50 μs delay on a RUBYstar HTRF plate reader (BMG Labtechnologies). Raw RFU data is normalized to maximum (1.0 nM BACE/DMSO) and minimum (no enzyme/DMSO) RFU values. […] The Ki values are calculated from the IC50 using the Cheng-Prusoff equation.

In data set [4] the target is Cathepsin-D (Homo sapiens (Human), UniProt P07339). Description: Cathepsin-D inhibition (selectivity). The class given is biochemical.
Cathepsin-D, sequence (P07339 65-412, species assumed): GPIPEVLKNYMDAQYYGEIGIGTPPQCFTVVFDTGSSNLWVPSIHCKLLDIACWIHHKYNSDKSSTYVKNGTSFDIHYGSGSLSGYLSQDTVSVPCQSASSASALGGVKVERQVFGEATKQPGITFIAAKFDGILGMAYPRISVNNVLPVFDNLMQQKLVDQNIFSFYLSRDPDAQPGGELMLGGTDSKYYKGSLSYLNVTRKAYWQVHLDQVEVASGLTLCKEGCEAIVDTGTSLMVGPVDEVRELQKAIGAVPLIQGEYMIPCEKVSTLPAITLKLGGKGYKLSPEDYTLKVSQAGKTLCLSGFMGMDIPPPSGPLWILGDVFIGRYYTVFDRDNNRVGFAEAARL

human P-glycoprotein, sequence (P08183 whole entry, the tested form may be a part): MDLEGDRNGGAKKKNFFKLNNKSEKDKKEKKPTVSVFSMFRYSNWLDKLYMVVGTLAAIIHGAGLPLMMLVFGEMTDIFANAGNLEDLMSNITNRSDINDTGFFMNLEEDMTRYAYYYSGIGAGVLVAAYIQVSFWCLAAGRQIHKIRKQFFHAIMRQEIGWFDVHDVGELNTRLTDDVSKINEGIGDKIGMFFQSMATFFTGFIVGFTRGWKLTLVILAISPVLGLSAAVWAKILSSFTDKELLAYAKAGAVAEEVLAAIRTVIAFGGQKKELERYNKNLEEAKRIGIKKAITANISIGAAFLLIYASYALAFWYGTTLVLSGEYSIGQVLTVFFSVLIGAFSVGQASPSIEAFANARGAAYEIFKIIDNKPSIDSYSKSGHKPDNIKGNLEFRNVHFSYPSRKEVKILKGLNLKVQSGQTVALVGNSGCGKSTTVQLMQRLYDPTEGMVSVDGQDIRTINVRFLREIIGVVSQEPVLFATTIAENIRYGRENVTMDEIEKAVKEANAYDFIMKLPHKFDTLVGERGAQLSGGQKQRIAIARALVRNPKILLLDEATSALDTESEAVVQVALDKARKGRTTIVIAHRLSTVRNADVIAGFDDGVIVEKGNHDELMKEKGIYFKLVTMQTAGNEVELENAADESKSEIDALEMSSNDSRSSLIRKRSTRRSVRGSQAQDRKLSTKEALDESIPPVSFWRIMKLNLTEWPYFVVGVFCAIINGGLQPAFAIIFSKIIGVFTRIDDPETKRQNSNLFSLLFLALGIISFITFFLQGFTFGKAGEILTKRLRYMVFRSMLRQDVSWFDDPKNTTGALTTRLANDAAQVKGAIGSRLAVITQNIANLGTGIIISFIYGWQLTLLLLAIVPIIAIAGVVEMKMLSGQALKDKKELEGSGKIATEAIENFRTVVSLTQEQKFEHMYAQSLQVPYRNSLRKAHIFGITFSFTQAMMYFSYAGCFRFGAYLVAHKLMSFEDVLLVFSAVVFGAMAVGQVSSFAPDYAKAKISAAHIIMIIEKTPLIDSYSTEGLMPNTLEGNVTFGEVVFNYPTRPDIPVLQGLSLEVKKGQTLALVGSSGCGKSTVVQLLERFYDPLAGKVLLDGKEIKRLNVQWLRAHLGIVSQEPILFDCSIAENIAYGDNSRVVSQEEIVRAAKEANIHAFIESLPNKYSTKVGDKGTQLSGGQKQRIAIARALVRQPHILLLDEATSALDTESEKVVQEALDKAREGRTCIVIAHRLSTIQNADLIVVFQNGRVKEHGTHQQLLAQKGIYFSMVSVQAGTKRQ
human autoBACE-2, sequence (Q9Y5Z0 63-473 limits assumed): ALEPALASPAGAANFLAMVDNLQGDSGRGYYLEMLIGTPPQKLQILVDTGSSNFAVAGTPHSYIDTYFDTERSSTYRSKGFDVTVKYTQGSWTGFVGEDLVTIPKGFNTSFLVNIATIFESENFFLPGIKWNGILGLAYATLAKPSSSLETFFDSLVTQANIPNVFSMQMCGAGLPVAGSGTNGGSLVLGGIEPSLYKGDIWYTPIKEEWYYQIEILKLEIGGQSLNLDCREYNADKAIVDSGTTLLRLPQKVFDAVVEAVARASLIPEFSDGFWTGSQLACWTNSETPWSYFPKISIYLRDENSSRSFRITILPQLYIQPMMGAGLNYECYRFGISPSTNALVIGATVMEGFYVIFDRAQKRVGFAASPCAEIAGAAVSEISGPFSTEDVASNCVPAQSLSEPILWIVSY

For orientation: Ki means the dissociation constant of the complex between target and ligand, obtained from inhibition or displacement. Regarding `CN1C(=N)N[C@](C)(c2sc(-c3cccc(-c4ncco4)c3)cc2F)CS1(=O)=O` [Example 7], the “Pgp Mdr1 ER” value in data set [1] came to 1.7. In addition, the Ki in data set [2] is 8.7 nM; in data set [3], 0.73 nM.
In the case of `CN1C(=N)N[C@](C)(c2sc(-c3cccc(-c4nnc(C5CC5)o4)c3)cc2Cl)CS1(=O)=O` [Example 17], the “Pgp Mdr1 ER” value in data set [1] is on record as 1.0. The Ki in data set [2] is 203 nM; in data set [3] it was 2.2 nM.
Turning to `Cc1noc(-c2cccc(-c3cc(F)c([C@]4(C)CS(=O)(=O)N(C)C(=N)N4)s3)c2)n1` [Example 38], the “Pgp Mdr1 ER” value in data set [1] was 1.7. Besides, the Ki was 29.1 nM in data set [2] and 3.6 nM in data set [3].
For the compound `CN1C(=N)N[C@](C)(c2sc3c(-c4ccc(-n5cccn5)nc4)nccc3c2Cl)CS1(=O)=O` [Example 80], the “Pgp susceptibility (in words)” value in data set [1] is listed as “low Pgp susceptibility”. Also, the “Pgp Mdr1 ER” value in data set [1] is listed as 0.78. Moreover, the “BACE potency (in words)” value in data set [2] is “good BACE potency”. Moreover, the Ki in data set [2] is 10 nM; in data set [3], 16 nM; in data set [4] (read-out: Cath-D Ki), 6970 nM. Besides, the “Cathepsin-D selectivity (in words)” value in data set [4] (selectivity for BACE over Cathepsin-D) was “good Cathepsin-D selectivity”.
For the compound `Cc1nc(-c2cccc(-c3cc(Cl)c([C@]4(C)CS(=O)(=O)N(C)C(=N)N4)s3)c2)no1` [Example 41], the “Pgp Mdr1 ER” value in data set [1] came to 0.34. In addition, the Ki in data set [2] is 13.4 nM; in data set [3], 0.35 nM.
As for `CN1C(=N)N[C@](C)(c2sc(-c3cccc(-c4ccno4)c3)cc2F)CS1(=O)=O` [Example 14], the “Pgp Mdr1 ER” value in data set [1] is recorded as 1.6. Besides, the Ki in data set [2] is 6.9 nM; in data set [3] it was 3.5 nM.
For the compound `CN1C(=N)N[C@](C)(c2sc(-c3cccc(-c4ncco4)c3)cc2Cl)CS1(=O)=O` [Example 6], in data set [1], the “Pgp Mdr1 ER” value is on record as 0.49. Besides, the Ki is 4.7 nM in data set [2] and 1.4 nM in data set [3].
On to `CN1C(=N)N[C@](C)(c2sc(-c3cc(F)cc(-c4cnco4)c3)cc2F)CS1(=O)=O` [Example 25], for which, in data set [1], the “Pgp Mdr1 ER” value was determined as 1.1. Also, the Ki in data set [2] is 12.5 nM; in data set [3] it was 4.8 nM.
As to `Cc1nc(-c2cccc(-c3cc(F)c([C@]4(C)CS(=O)(=O)N(C)C(=N)N4)s3)c2)no1` [Example 42], in data set [1], the “Pgp Mdr1 ER” value came out at 1.2. Also, the figures for the Ki in data set [2] and in data set [3] were 25.4 nM and 1.1 nM, respectively.
In the case of `CN1C(=N)N[C@](C)(c2sc(-c3cccc(-c4cnco4)c3)cc2Cl)CS1(=O)=O` [Example 11], the “Pgp Mdr1 ER” value in data set [1] stood at 1.3. Besides, the results for the Ki in data set [2] and in data set [3] were 1.7 nM and 2 nM, respectively.
As to `CN1C(=N)N[C@](C)(c2sc(-c3cccc(-c4cnco4)c3)cc2F)CS1(=O)=O` [Example 12], the “Pgp Mdr1 ER” value in data set [1] worked out at 1.8. Further, the Ki in data set [2] is 3.3 nM; in data set [3], 3.7 nM.
`CN1C(=N)N[C@](C)(c2sc(-c3cccc(-c4nnc(C5CC5)o4)c3)cc2F)CS1(=O)=O` [Example 18]: the “Pgp Mdr1 ER” value in data set [1] came out at 0.53. Besides, the Ki in data set [2] is 177 nM; in data set [3] it was 4.2 nM.
As to `CN1C(=N)N[C@](C)(c2sc(-c3cccc(-c4ncon4)c3)cc2Cl)CS1(=O)=O` [Example 46], in data set [1], the “Pgp Mdr1 ER” value was determined as 0.70. The Ki in data set [2] is 3.3 nM; in data set [3], 0.41 nM.
With `CN1C(=N)N[C@](C)(c2sc(-c3cc(F)cc(-c4cnco4)c3)cc2Cl)CS1(=O)=O` [Example 23], in data set [1], the “Pgp Mdr1 ER” value is recorded as 0.90. Also, the inhibition constant Ki in data set [2] was 11.4 nM; in data set [3] it was 4.8 nM.
In the case of `CN1C(=N)N[C@](C)(c2sc(-c3ccc(-c4ncco4)cc3)cc2Cl)CS1(=O)=O` [Example 69], the values for the Ki in data set [2] and in data set [3] were 4230 nM and 337 nM, respectively.
For `CN1C(=N)N[C@](C)(c2sc3c(-c4ccc(-c5ccoc5)cc4F)nccc3c2Cl)CS1(=O)=O` [Example 107] the same measures were 19.7 nM and 270 nM.
`COc1cnn(-c2ccc(-c3nccc4c(Cl)c([C@]5(C)CS(=O)(=O)N(C)C(=N)N5)sc34)c(F)c2)c1` [Example 115]: the Ki in data set [2] was 17.7 nM; in data set [3], 267 nM.
For `CN1C(=N)N[C@](C)(c2sc(-c3cccc(-n4cccn4)c3)cc2Cl)CS1(=O)=O` [Example 60] the same measures were 57 nM and 1.6 nM.
Consider `CN1C(=N)N[C@](C)(c2sc(-c3cccc(-c4ncon4)c3)cc2F)CS1(=O)=O` [Example 47], for which the “Pgp Mdr1 ER” value in data set [1] is 1.7. Further, the Ki in data set [2] is 3.9 nM; in data set [3], 0.34 nM.
As to `CN1C(=N)N[C@](C)(c2ncc(-c3cccc(-c4ncco4)c3)s2)CS1(=O)=O` [Example 26], the Ki in data set [2] was 43.6 nM; in data set [3] it was 5.7 nM.
For `CN1C(=N)N[C@](C)(c2sc(-c3cccc(-c4nc(C5CC5)no4)c3)cc2F)CS1(=O)=O` [Example 40] the same measures were 623 nM and 9.5 nM.
With `CN1C(=N)N[C@](C)(c2sc3c(-c4ccc(N5CCOCC5)nc4)cccc3c2F)CS1(=O)=O` [Example 94], the inhibition constant (Ki) in data set [2] was 1500 nM; in data set [3] it was 9520 nM.
For `CN1C(=N)N[C@](C)(c2sc3c(-c4ccc(-c5cnco5)cc4F)nccc3c2Cl)CS1(=O)=O` [Example 108], in that order: 35.2 nM and 19 nM.
For `Cc1occc1-c1ccc(-c2nccc3c(Cl)c([C@]4(C)CS(=O)(=O)N(C)C(=N)N4)sc23)c(F)c1` [Example 109], in that order: 525 nM and 87 nM.
For `CN1C(=N)N[C@](C)(c2sc3c(-c4ccc(-c5nccn5C)cc4)nccc3c2Cl)CS1(=O)=O` [Example 105] the same measures were 1640 nM and 86 nM.
In the case of `CN1C(=N)N[C@](C)(c2sc3c(-c4ccc(-c5ccc(F)cc5F)nc4)cccc3c2F)CS1(=O)=O` [Example 82], the Ki in data set [2] was 93 nM; in data set [3] it was 61 nM.
For `CN1C(=N)N[C@](C)(c2sc(-c3ccnc(-n4cccn4)c3)cc2F)CS1(=O)=O` [Example 77], the Ki in data set [2] is 162 nM; in data set [3], 69 nM.
On to `CN1C(=N)N[C@](C)(c2sc(-c3ccnc(-c4ccncc4)c3)cc2F)CS1(=O)=O` [Example 73], for which the figures for the Ki in data set [2] and in data set [3] were 338 nM and 123 nM, respectively.

The values are drawn from US9416129B2, “Tricyclic substituted thiadiazine dioxide compounds as BACE inhibitors, compositions and their use” (Merck Sharp & Dohme Corp., priority 2012, dated 2016).
